Results published in patent US10525139B2, “Folate-conjugated molecules for delivery of toxic small molecule inhibitors to cancer cells and methods of use” (priority 2014, dated 2020).
“Also recorded” adds a separate entry of the source.

Columns and labels:
NOTCH1 [1] = assay: NOTCH1 cell surface staining by flow cytometry; type: cell-based, human; conditions: T-ALL cells; for NOTCH1 expression on the cell surface: 24 hours
Excerpt: (§1) We previously described that the SERCA inhibitors thapsigargin and cyclopiazonic acid impair NOTCH1 maturation leading to an accumulation of full-length, unprocessed polypeptides in the endoplasmic reticulum/Golgi subcellular compartment. An immediate consequence of SERCA inhibition is a decrement in NOTCH1 protein display on the surface of T-ALL cells. […] To further support the hypothesis that Thap-OH impairs mutant NOTCH1 maturation, we evaluated levels of full-length, transmembrane and activated NOTCH1 (ICN1) by WB. Lysates from T-ALL cell lines treated with 1 μM Thap-OH were immunoblotted with an antibody specific for the cytoplasmic portion of NOTCH1 that recognizes both unprocessed NOTCH1 (FL-N1) (˜270 kDa) and the furin-processed transmembrane subunit (TM-N1) (˜110 kDa).
The NOTCH loss was measured via flow cytometry. […] The recapitulation of the thapsigargin effect by JQ-FT is hypothesized to be due to the delivery strategy introduced by folate. […] Here cell growth was assessed using the Promega Cell-Titer Glo ATP-based assay (Promega, Madison, Wis., USA). Luminescence was measured using a Fluostar Omega instrument (BMG-labtech, Ortenberg, Germany).

NOTCH1 [2] = assay: NOTCH1 processing and activation by western blot (FL-N1, TM-N1, ICN1); type: cell-based, human; conditions: 24 h
Excerpt: as §1
Both Folate-Thap (JQ-FT) and Thap-OH were tested in T-ALL cell lines with 24 h treatment. […] Lysates were prepared after treatment with indicated doses of thapsigargin, JQ-FT or Thap-OH for 24 hr. The blot shown was stained with an antibody against the C-terminus of NOTCH1 that recognizes both the furin-processed NOTCH1 transmembrane subunit (TM) and the unprocessed NOTCH1 precursor (FL) (FIG. 2A). GAPDH was used as a loading control. Western blots were stained with antibodies specific for γ-secretase-cleaved NOTCH 1 ([…], Cell Signaling, Beverly, Mass., USA), or the C-terminus of NOTCH1 (SC-6014 (C-20) Santa Cruz Biotechnology, Santa Cruz, Calif., USA). Control stains were carried out with antibodies specific for GAPDH (137179, Santa Cruz Biotechnology). Blots were developed with anti-rabbit-HRP (NA9340V, Amersham, Pittsburgh, Pa., USA) or anti-mouse-HRP (NA9340V or NA9310V, Amersham). Staining was quantified using ImageQuant TI V 7.0 (GE Health Care, Piscataway, N.J., USA).

[3] = tested on: murine NOTCH1 L1601P ΔPEST expressing leukemia lymphoblasts; assay: Ex vivo treatment of murine NOTCH1 L1601P ΔPEST leukemia lymphoblasts; type: cell-based, mouse
Procedure: Viability data is represented as percentage relative to vehicle treatment and errors bars denote mean±SD of 3 replicates. Statistical significance of treated vs. vehicle (DMSO) samples (***P≤0.01; ***P≤0.001) was determined by one-way ANOVA with Bonferroni's correction for multiple comparison testing. […] The immunoblot contains cell lysates stained with anti-ICN1 antibody (Val1744) after treatment with the 10 μM of JQ-FT for 24 hours in vitro. GAPDH was used as a loading control ICN1 loss was quantified and bar graph (panel e) corresponds to the results of the quantification of three independent experiments. Statistical significance of treated vs. vehicle (DMSO) samples (*P≤0.05) was determined by Student's t-test. Expression of indicated NOTCH1 target genes HesI (panel d) and Dtx1 (panel e) in murine NOTCH1 L1601P ΔPEST expressing leukemia lymphoblasts treated with 10 μM JQ-FT for 24 hours was determined by qRT-PCR. Error bars indicate the mean±SD of 3 replicates. Data were analyzed using the ΔΔCT method and plotted as a percentage relative to the control gene Gapdh. Statistical significance for treated vs. vehicle (DMSO) (*P≤0.05) was determined by Student's t-test. […] The spleen and the liver of all mice were examined; representative results for one control animal and one JQ-FT-treated animal are shown. Formalin-fixed, paraffin-embedded tissue sections were stained using the hematoxylin and eosin stain (H & E) method. […] Anti-leukemic activity of JQ-FT was assessed by measuring spleen weight upon 5 days of JQ-FT treatment (60 mg/kg I.P) or vehicle (65% D5W+30% PEG-400+5% Tween-80only). […] Statistical significance for treated vs. vehicle (*P≤0.05) was determined by non-parametric t-test (Mann-Whitney). […] Statistical significance for treated vs. vehicle (*P≤0.05) was determined by non-parametric t-test (Mann-Whitney). […] ICN1 loss was quantified and bar graph (j) corresponds to the results of the quantification. Statistical significance for treated vs. vehicle (*P≤0.05) was determined by Student's t-test. […]

[4] = Maximal tolerated dose in mice; type: in vivo
Procedure: Though the JQ-FT conjugate has not, as yet, been optimized for pharmacologic properties, we are eager to explore the utility of the compound as an in vivo chemical probe, while assessing putative tolerability of folate-conjugated thapsigargins. We first established the maximal tolerated dose (MTD) of JQ-FT as 60 mg/kg/day in mice, as administered by daily intraperitoneal injection. […] We therefore initiated treatment studies of JQ-FT (60 mg/kg IP daily) in mice with established T-ALL.

T-ALL cell lines = assay: T-ALL cell viability / growth (ATP content, Cell-Titer Glo); type: cell-based, human

## C/C=C(/C)C(=O)O[C@H]1C(C)=C2C([C@@H]1OC(=O)CCCCCCC)[C@@](C)(OC(C)=O)C[C@H](OC(=O)CC[C@H](NC(=O)c1ccc(NCc3cnc4nc(N)[nH]c(=O)c4n3)cc1)C(=O)O)[C@@]1(O)[C@H]2OC(=O)[C@@]1(C)O (some centres unmarked) [JQ-FT]
NOTCH1 [1]
  effect on cell surface NOTCH1 compared with thapsigargin: more similar to thapsigargin at 20 uM
  NOTCH1 expression on the cell surface: show NOTCH loss
NOTCH1 [1]; listed as Folate-Thap
  NOTCH1 expression on the cell surface: loss of Notch in a manner similar to thapsigargin
NOTCH1 [2]; T-ALL cell lines with HD mutations, Thap-OH at 1 μM
  furin-processed transmembrane NOTCH1 subunit (TM-N1) level: loss of trans-membrane NOTCH; also recorded: decrement of transmembrane NOTCH1
NOTCH1 [2]; T-ALL cell lines
  ICN1 level: Loss of ICN1
  unprocessed full-length NOTCH1 (FL-N1) level: accumulation of full length NOTCH; also recorded: accumulation of full length NOTCH1
[3]; 10 μM JQ-FT, 24 hours
  ICN1 expression in murine leukemia cells: diminished
  transcription of NOTCH1 targets Hes1 and Dtx1: diminished
[3]; ex vivo treatment with JQ-FT
  proliferation of murine leukemia cells: diminished the proliferation
[4]
  MTD relative to MTD of unconjugated thapsigargin: 150 fold
[4]; mouse, in vivo, ip, daily intraperitoneal injection
  MTD: 60 mg/kg/day
T-ALL cell lines; T-ALL cell lines, 10 μM
  cell cycle: G1 cell cycle arrest
  induction of apoptosis in T-ALL cell lines: rapid induction of apoptosis
T-ALL cell lines; cell lines overexpressing FR1 or FR2
  effect on cell viability in FR-overexpressing cell lines: greater effect on cell viability
